Like-named read-outs stand apart in the source and are kept apart here.
Assays:
Assay type in all cases: physicochemical
[1] = Stoichiometry (acid/freebase) by 1H NMR or HPLC/IC
Text: Solution NMR was collected on Bruker 500M NMR Spectrometer using DMSO-d6 and CD3OD as solvents.
Agilent 1100 HPLC was utilized to analyze the purity and stoichiometry, with detailed method listed in below.
IC method for counter-ion content measurement is listed below.
(§1) All hits were further characterized by TGA and DSC, with the stoichiometry determined by ^1H NMR or HPLC/IC. Based on the characterization data in Table 2 below, most of them were considered to be anhydrates.

[2] = Thermogravimetric analysis (TGA) weight loss of crystalline hits; details: for Speculated Form: based on TGA/DSC characterization data
Protocol: (§2) TGA data were collected using a TA Q500 and Q550 from TA Instruments. DSC was performed using a TA Q2000 from TA Instruments. DSC was calibrated with Indium reference standard and the TGA was calibrated using nickel reference standard.
as §1

[3] = Differential scanning calorimetry (DSC) endotherms of crystalline hits; details: for DSC Endo. (onset, ° C.): onset temperature; for DSC Endo., peak temperature: peak temperature (footnote *)
Protocol: as §2, §1

[4] = Salt/co-crystal screening: 38 acids, eight solvent systems, solids analysed by XRPD; details: acid/freebase charge 1:1 unless label says 2:1, stirred at RT, else 5° C. slurry, anti-solvent addition or evaporation (footnote marks)
Protocol: XRPD analysis was performed with a Panalytical X'Pert^3 Powder XRPD on a Si zero-background holder. The 2θ position was calibrated against Panalytical Si reference standard disc.
A total of 320 salt/co-crystal screening experiments were conducted using 38 acids (two molar ratios for HCl and HBr) and eight solvent systems. Specifically, freebase stock solutions of ˜100 mg/mL were first prepared in each solvent system. For each experiment, 0.2 mL stock solution and the corresponding acids were mixed in a molar charge ratio of 1:1 (acid/freebase, 2:1 for HCl/freebase and HBr/freebase as well), and then stirred at RT. After stirring for 3-5 days, if precipitation was observed, the precipitate was isolated. It no precipitation, the clear solutions were first transferred to slurry at 5° C. to introduce precipitation. Solutions without any precipitation were further subjected to anti-solvent addition (for solvents in column B/D, 0.5 mL hexane was added; for solvents in column G/H, 0.5 mL water was added; for solvent in column F, 0.5 mL n-heptane was added). If still no precipitation, the final clear solutions were transferred to evaporation at RT to induce precipitation. All solids isolated were vacuum dried at RT for 2 hrs before XRPD analysis.

Solid obtained in salt screening (XRPD), solvent D Acetone/Hexane (1:2, v/v) [4] | Solid obtained in salt screening (XRPD), solvent H Dioxane/H2O (9:1, v/v) [4] | Solid obtained in salt screening (XRPD), solvent A Ethanol [4] | Solid obtained in salt screening (XRPD), solvent G Methanol/H2O (19:1, v/v) [4] | Solid obtained in salt screening (XRPD), solvent F Methyl tertbutyl ether [4] | Solid obtained in salt screening (XRPD), solvent C THF [4] | Solid obtained in salt screening (XRPD), solvent E Toluene [4] | SMILES | Stoichiometry (acid/base) [1] | TGA Wt. Loss (%) [2] | Speculated Form [2] | DSC Endo. (onset, ° C.) [3] | also measured
– | – | – | – | – | – | – | CCCCc1nc(-c2ccc(OCCCN(CC)CC)cc2)cn1-c1ccc(Oc2ccc(Cl)cc2)cc1.O=C(O)/C=C/C(=O)O [Fumarate Type A] | 1.00 | negligible | Anhydrate | 115.0 °C | –
– | – | – | – | – | – | – | CCCCc1nc(-c2ccc(OCCCN(CC)CC)cc2)cn1-c1ccc(Oc2ccc(Cl)cc2)cc1.O=C(O)[C@@H](O)[C@H](O)[C@H](O)[C@@H](O)C(=O)O [Galactarate Type A] | 0.98 | – | Anhydrate | 158.4 °C | TGA Wt. Loss (%) ([2]; up to 130° C.): 0.6 up to %; DSC Endo., peak temperature [3]: 106.3 °C
– | – | – | – | – | – | – | CCCCc1nc(-c2ccc(OCCCN(CC)CC)cc2)cn1-c1ccc(Oc2ccc(Cl)cc2)cc1.O=C(O)c1cc(O)ccc1O [Gentisate Type A] | 1.01 | – | Hydrate | – | TGA Wt. Loss (%) ([2]; up to 120° C.): 1.8 up to %
– | – | – | – | – | – | – | CCCCc1nc(-c2ccc(OCCCN(CC)CC)cc2)cn1-c1ccc(Oc2ccc(Cl)cc2)cc1.O=C(O)c1cc(O)ccc1O [Gentisate Type B] | 1.03 | negligible | Anhydrate | 122.9 °C | –
– | – | – | – | – | – | – | Br.CCCCc1nc(-c2ccc(OCCCN(CC)CC)cc2)cn1-c1ccc(Oc2ccc(Cl)cc2)cc1 [HBr salt Type A] | 1.05 | negligible | Anhydrate | 169.9 °C | –
– | – | – | – | – | – | – | Br.CCCCc1nc(-c2ccc(OCCCN(CC)CC)cc2)cn1-c1ccc(Oc2ccc(Cl)cc2)cc1 [HBr salt Type B] | 2.07 | negligible | Anhydrate | – | –
– | – | – | – | – | – | – | CCCCc1nc(-c2ccc(OCCCN(CC)CC)cc2)cn1-c1ccc(Oc2ccc(Cl)cc2)cc1.Cl [HCl salt Type A] | 1.33 | negligible | Anhydrate | 167.0 °C | –
– | – | – | – | – | – | – | CCCCc1nc(-c2ccc(OCCCN(CC)CC)cc2)cn1-c1ccc(Oc2ccc(Cl)cc2)cc1.O=C(O)CNC(=O)c1ccccc1 [Hippurate Type A] | 0.98 | negligible | Anhydrate | 72.7 °C | DSC Endo., peak temperature [3]: 44.3 °C
– | – | – | – | – | – | – | CCCCc1nc(-c2ccc(OCCCN(CC)CC)cc2)cn1-c1ccc(Oc2ccc(Cl)cc2)cc1.O=C(O)C[C@H](O)C(=O)O [L-Malate Type A] | 1.11 | negligible | Anhydrate | 67.8 °C | –
– | – | – | – | – | – | – | CCCCc1nc(-c2ccc(OCCCN(CC)CC)cc2)cn1-c1ccc(Oc2ccc(Cl)cc2)cc1.O=C(O)C(O)C(O)C(=O)O [L-Tartrate Type A] | 1.00 | – | Hydrate | 76.4 °C | TGA Wt. Loss (%) ([2]; up to 60° C.): 2.1 up to %
– | – | – | – | – | – | – | CCCCc1nc(-c2ccc(OCCCN(CC)CC)cc2)cn1-c1ccc(Oc2ccc(Cl)cc2)cc1.O=C(O)/C=C\C(=O)O [Maleate Type A] | 0.97 | negligible | Anhydrate | 120.2 °C | –
– | – | – | – | – | – | – | CCCCc1nc(-c2ccc(OCCCN(CC)CC)cc2)cn1-c1ccc(Oc2ccc(Cl)cc2)cc1.O=C(O)C(=O)O [Oxalate Type A] | 1.12 | negligible | Anhydrate | 109.5 °C | –
gel* | amorphous* | gel* | FB Type A^& | FB Type B* | gel* | gel* | CCC(=O)O [Propionic acid] | – | – | – | – | Solid obtained in salt screening (XRPD), solvent B Ethyl acetate/Hexane (1:2, v/v) [4]: FB Type A
gel | amorphous* | amorphous* | amorphous* | gel | gel | gel | O=C(O)[C@H](O)c1ccccc1 [R-mandelic acid] | – | – | – | – | Solid obtained in salt screening (XRPD), solvent B Ethyl acetate/Hexane (1:2, v/v) [4]: gel*
– | – | – | – | – | – | – | CCCCc1nc(-c2ccc(OCCCN(CC)CC)cc2)cn1-c1ccc(Oc2ccc(Cl)cc2)cc1.O=C1NS(=O)(=O)c2ccccc21 [Saccharinate Type A] | 1.22 | negligible | Anhydrate | 120.0 °C | –
– | amorphous^& | – | – | FB Type A* | – | – | CCCCCCCCCCCCCCCCCC(=O)O [Stearic acid] | – | – | – | – | –
amorphous* | amorphous* | gel* | amorphous* | FB Type B* | gel* | gel* | O=C(O)CCC(=O)O [Succnic acid] | – | – | – | – | Solid obtained in salt screening (XRPD), solvent B Ethyl acetate/Hexane (1:2, v/v) [4]: amorphous*
– | – | – | – | – | – | – | CCCCc1nc(-c2ccc(OCCCN(CC)CC)cc2)cn1-c1ccc(Oc2ccc(Cl)cc2)cc1.COc1cc(C(=O)O)ccc1O [Vanillate Type A] | 1.04 | negligible | Anhydrate | 99.6 °C | –
– | amorphous* | amorphous | amorphous* | – | gel | gel | COc1cc(C(=O)O)ccc1O [Vanillic acid] | – | – | – | – | –
gel* | FB Type A^& | gel* | amorphous^& | amorphous* | gel | gel | COc1cc(C=O)ccc1O [Vanillin] | – | – | – | – | Solid obtained in salt screening (XRPD), solvent B Ethyl acetate/Hexane (1:2, v/v) [4]: gel*
gel | amorphous* | amorphous | amorphous* | amorphous* | gel | gel | O=C(O)/C=C/c1ccccc1 [trans Cinnamic acid] | – | – | – | – | Solid obtained in salt screening (XRPD), solvent B Ethyl acetate/Hexane (1:2, v/v) [4]: gel

SMILES | Solid obtained in salt screening (XRPD), solvent D Acetone/Hexane (1:2, v/v) [4] | Solid obtained in salt screening (XRPD), solvent H Dioxane/H2O (9:1, v/v) [4] | Solid obtained in salt screening (XRPD), solvent A Ethanol [4] | Solid obtained in salt screening (XRPD), solvent G Methanol/H2O (19:1, v/v) [4] | Solid obtained in salt screening (XRPD), solvent F Methyl tertbutyl ether [4] | Solid obtained in salt screening (XRPD), solvent C THF [4] | Solid obtained in salt screening (XRPD), solvent E Toluene [4] | Stoichiometry (acid/base) [1] | TGA Wt. Loss (%) [2] | Speculated Form [2] | DSC Endo. (onset, ° C.) [3] | also measured
O=C1NS(=O)(=O)c2ccccc21 [Saccharin] | gel | amorphous* | amorphous* | – | – | gel | gel | – | – | – | – | –
O=C(O)c1ccccc1O [Salicyclic acid] | amorphous* | amorphous* | gel* | amorphous* | amorphous^& | gel* | gel* | – | – | – | – | Solid obtained in salt screening (XRPD), solvent B Ethyl acetate/Hexane (1:2, v/v) [4]: amorphous*
